A short description of data set [1]: Cytotoxicity in growing (rapidly dividing) HFF. Type of data set: cell-based, human. The settings on record: human, growing hff cells.
In the next data set the test system is herpes viruses. Put plainly: Antiherpetic activity, overall. It is filed as cell-based. The settings on record: in words.
Data set [2] in a line: Cytotoxicity in host cells / stationary cells (HFF). Type of data set: cell-based, human. The note with it: human, hff cells. The source says: (§1) ^d CC50 = cytotoxic concentration in μg/mL that produces 50%
Data set [3] concerns HSV-2 (herpes simplex type 2). Put plainly: microbe, parasite or virus in culture. The note with it: for activity against HSV-2: in words. The source says: (§2) Compounds 25 and 26 are (S)-methanocarba-T and (±)-(carba-T), respectively. (±)-carba-T was kindly provided by Dr. Y. Fulmer Shealy, Southern Research Institute, Birmingham, Ala. [drawing 5]
The subject of data set [4] is HSV-1 (herpes simplex type 1). Put plainly: microbe, parasite or virus in culture. The note with it: for activity against HSV-1: in words.
From the text: as §2

In data set [5] the test system is HCMV (human cytomegalovirus). Put plainly: microbe, parasite or virus in culture. Type of data set: cell-based. The settings on record: for EC50: Human betaherpesvirus 5, Table 5, HCMV, plaque reduction assay. The source says:
| ^f plaque reduction assay.
For orientation: Plaque reduction counts the foci of infection that form in a cell layer.

Data set [6] has as its system HCMV (human cytomegalovirus). Put plainly: microbe, parasite or virus in culture. It is filed as cell-based. The note with it: for EC50: HCMV; for activity against HCMV: in words.
Experimental: (§3) Antiviral testing of nucleoside analogs was performed on various herpes viruses. Two days prior to use, human foreskin fibroblasts (BFF) were trypsinized, counted, seeded onto six well plates and incubated at 37° C., 5% CO2, 90% relative humidity. Virus was diluted in Modified Eagle's Medium (MEM) containing 10% fetal bovine serum (FBS) at a desired concentration to give 20-30 plaques/well. Media was aspirated from the wells and 0.2 ml virus +0.2 ml media was added to each well in duplicate. Plates were incubated for 1 hour with shaking every 15 minutes. After the incubation, equal volumes of 1% agarose and the diluted nucleoside analog were combined and applied to each well in a 2 ml volume. The plates were incubated for three days and cells were stained with a 1.5% solution of neutral red. After 4-6 hours, the stain was aspirated and plaques were counted using a stereomicroscope at 10×magnification.
The subject of data set [7] is HFF (human foreskin fibroblasts). Put plainly: Cytotoxicity in host cells / stationary cells (HFF). It is filed as cell-based. The settings on record: Table 5, host cell not given.
From the text: as §1

A further data set deals with EBV (Epstein-Barr virus). Put plainly: microbe, parasite or virus in culture. It is filed as cell-based. The settings on record: for EC50: human gammaherpesvirus 4; for activity against EBV: in words.
From the text: as §2

The nature of data set [8]: Cytotoxicity in EBV host cells (Daudi). It is filed as cell-based. The note with it: human, Table 4, EBV line, host cell not given.
The subject of a further data set is Growing HFF. Put plainly: Cytotoxicity in growing (rapidly dividing) HFF. Type of data set: cell-based, human. The note with it: in words; rapidly proliferating vs stationary cells.
Where [9] appears, read: rapidly dividing cells, read-out: CC50.
The mark [10] stands for this setting: Table 4, HSV-1 and HSV-2 lines, host cell not given.
Where [11] appears, read: Human alphaherpesvirus 2, Table 4, HSV-2, plaques reduced by 50%.
Where [12] appears, read: Human alphaherpesvirus 1, Table 4, HSV-1, plaques reduced by 50%.
Setting [13] is: Human betaherpesvirus 5, Table 5, read-out: EC50.
The mark [14] stands for this setting: Human alphaherpesvirus 2, Table 5, HSV-2.
The mark [15] stands for this setting: Human alphaherpesvirus 1, Table 5, HSV-1.

≈ marks a conversion by molar mass, not a printed value. Where “and” joins values, the source holds several entries; their conditions need not be identical. Equal entries are not always repeated. Where two headings read alike, the source gives them in different places.

Experimental for herpes viruses: as §3

On to `Cc1cn([C@@H]2C[C@H](CO)[C@@H](O)C2)c(=O)[nH]c1=O` (relative stereo) [Compound 26, (±)-(carba-T), reference compound], for which the CC50 in data set [1] (setting [9]) was 0.65 µg/mL (≈ 2.71 µM); in data set [2] (setting [10]), over 10 µg/mL; in [2] (stationary cells), over 100 µg/mL. Besides, the antiherpetic activity result with herpes viruses was “did not exhibit antiherpetic activity”. The “SI (CC50/EC50)” value in [3] and in [4] was 1 throughout. The EC50 in [3] (setting [11]) and in data set [4] (setting [12]) was over 10 µg/mL each time.

For `Nc1ncnc2c1ncn2[C@@]12C[C@H](O)[C@@H](CO)[C@@H]1C2` [(S)-DMC-A, reference compound], the EC50 in data set [5] (read-out: EC50) is 2.4 µg/mL (≈ 9.19 µM); in data set [6] (setting [13]) it was 6.4 µg/mL (≈ 24.5 µM); in data set [3] (setting [14]), over 100 µg/mL; in data set [4] (setting [15]) it was over 100 µg/mL. The “SI (CC50/EC50)” value is on record as over 41.7 in data set [5] (human foreskin fibroblasts), over 15.6 in data set [6], 1 in data set [3] and 1 in data set [4]. In data set [2] (Table 5, host cell not given), this compound displayed a CC50 of over 100 µg/mL. For the same compound, the “activity against HCMV” value in data set [6] was “active against HCMV”.

As for `Nc1ccn([C@@]23C[C@H](O)[C@@H](CO)[C@@H]2C3)c(=O)n1` [(S)-DMC-C, reference compound], the “SI (CC50/EC50)” value in data set [6] is over 1.1; in data set [3], under 3.7; in data set [4] it was under 3.7. Moreover, the EC50 in data set [6] (setting [13]) is 88.9 µg/mL (≈ 375 µM); in [3] (setting [14]) it was over 4 µg/mL; in data set [4] (setting [15]), over 4 µg/mL.

For `Nc1nc2c(ncn2[C@@]23C[C@H](O)[C@@H](CO)[C@@H]2C3)c(=O)[nH]1` [(S)-DMC-G, reference compound], the “SI (CC50/EC50)” value is under 2.3 in [6], under 3.7 in data set [3] and under 3.7 in [4]. Further, the EC50 in data set [6] (setting [13]), in data set [3] (setting [14]) and in data set [4] (setting [15]) was over 20 µg/mL throughout.

With `O=c1ccn([C@@]23C[C@H](O)[C@@H](CO)[C@@H]2C3)c(=O)[nH]1` [(S)-DMC-U, reference compound], the CC50 is over 100 µg/mL in [7] and 59.1 µg/mL (≈ 248 µM) in data set [2] (Table 5, host cell not given). Moreover, the “SI (CC50/EC50)” value in data set [6] was 1; in [3], under 3.0; in data set [4] it was under 3.0. Further, the half-maximal effective concentration (EC50) was over 100 µg/mL in [6] (setting [13]), over 20 µg/mL in [3] (setting [14]) and over 20 µg/mL in data set [4] (setting [15]).

Consider `Nc1nc2c(ncn2COCCO)c(=O)[nH]1` [ACV, acyclovir, reference compound], for which the CC50 in data set [1] (Table 3, no virus, Growing HFF, positive control, read-out: Positive Control EC50 (line Growing HFF)) stood at 40 µg/mL (≈ 178 µM). For the same compound, the EC50 is 0.1 µg/mL (≈ 0.444 µM) with EBV (Epstein-Barr virus) (Table 3, EBV, Daudi, positive control, read-out: Positive Control EC50); 0.1 µg/mL (≈ 0.444 µM) in the data set with EBV (Epstein-Barr virus) (Table 4, EBV, acyclovir control, read-out: ACV (EC50)); 0.8 µg/mL (≈ 3.55 µM) in data set [3] (Human alphaherpesvirus 2, read-out: ACV (EC50), Table 4, HSV-2, acyclovir control); 4 µg/mL (≈ 17.8 µM) in data set [3] (Human alphaherpesvirus 2, read-out: Positive Control EC50, Table 3, HSV-2, HFF, positive control); 0.3 µg/mL (≈ 1.33 µM) in [4] (Human alphaherpesvirus 1, read-out: ACV (EC50), Table 4, HSV-1, acyclovir control); 0.8 µg/mL (≈ 3.55 µM) in data set [4] (Human alphaherpesvirus 1, read-out: Positive Control EC50, Table 3, HSV-1, HFF, positive control). The “ACV (EC50)” value in data set [3] (Table 4, HSV-2, acyclovir control) came out at 0.60 µg/mL; in data set [4] (Table 4, HSV-1, acyclovir control), 0.15 µg/mL. In addition, the “Control EC50” value in data set [3] (Table 5, HSV-2, control) is 1.8 µg/mL and 1.5 µg/mL; in [4] (Table 5, HSV-1, control), 0.20 µg/mL.

`Cc1cn([C@H]2C[C@H](O)[C@]3(CO)C[C@H]23)c(=O)[nH]c1=O` [Compound 20]: the CC50 was 32.9 µg/mL (≈ 130 µM) in data set [1] (setting [9]), over 100 µg/mL in [8], over 20 µg/mL in [2] (setting [10]) and over 100 µg/mL in data set [2] (stationary cells). For the same compound, the “activity relative to acyclovir” value with herpes viruses (HSV-1 and HSV-2) is listed as “stronger than observed with acyclovir”. Moreover, the “SI (CC50/EC50)” value was over 222 in the data set with EBV (Epstein-Barr virus), over 167 in data set [3] and over 2000 in data set [4]. In the data set with EBV (Epstein-Barr virus) (EBV), the “anti-EBV activity relative to acyclovir” value is “not as strong as ACV”. For the same compound, the EC50 was 0.45 µg/mL (≈ 1.78 µM) with EBV (Epstein-Barr virus) (Table 4, EBV, read-out: EC50); 0.12 µg/mL (≈ 0.476 µM) in data set [3] (setting [11]); 0.01 µg/mL (≈ 0.0396 µM) in data set [4] (setting [12]). For the same compound, the “activity against EBV” value in the data set with EBV (Epstein-Barr virus) was “significant anti-EBV activity”; in the data set on EBV (Epstein-Barr virus) (listed as N-methanocarba-T), “effective against HSV-1, HSV-2 and EBV”. Moreover, the “activity against HSV-2” value was “strong activity” in data set [3]; “effective against HSV-1, HSV-2 and EBV” in data set [3] (listed as N-methanocarba-T). For the same compound, the “activity against HSV-1” value in data set [4] was “strong activity”; in data set [4] (listed as N-methanocarba-T) it was “effective against HSV-1, HSV-2 and EBV”.

In turn, `O=c1ccn([C@H]2C[C@H](O)[C@]3(CO)C[C@H]23)c(=O)[nH]1` [Compound 21, (1R,2S,4S,5S)-1-(Hydroxymethyl)-2-hydroxy-4-(2,4-(1H,3H)-dioxopvrimidin-1-yl)bicyclor3.1.Olhexane] gave a CC50 in [2] (Table 5, host cell not given) of over 100 µg/mL. In addition, the “SI (CC50/EC50)” value in data set [6], in data set [3] and in data set [4] was 1 throughout. The EC50 in [6] (setting [13]), in data set [3] (setting [14]) and in data set [4] (setting [15]) was over 100 µg/mL throughout. For the same compound, the “activity against HCMV” value in [6] was “inactive against all three viruses”. Also, the “activity against HSV-2” value in [3] is “inactive against all three viruses”. Also, the “activity against HSV-1” value in data set [4] is “inactive against all three viruses”.

Take `Nc1ccn([C@H]2C[C@H](O)[C@]3(CO)C[C@H]23)c(=O)n1` [Compound 22]: the entries for the “SI (CC50/EC50)” value in data set [6], in data set [3] and in data set [4] were under 2.2, under 4.8 and 486, respectively. Moreover, the 50% effective concentration (EC50) was over 4 µg/mL in [6] (setting [13]), over 20 µg/mL in [3] (setting [14]) and 0.14 µg/mL (≈ 0.59 µM) in [4] (setting [15]). For the same compound, the “activity against HCMV” value in [6] is reported as “active against HCMV”. Further, the “activity against HSV-2” value in data set [3] is “Little activity”. The “activity against HSV-1” value in data set [4] is given as “very active against HSV-1”.

For `Nc1nc2c(ncn2[C@H]2C[C@H](O)[C@]3(CO)C[C@H]23)c(=O)[nH]1` [Compound 24], the CC50 in data set [7] (listed as (N)-DMC-G) was 64.3 µg/mL (≈ 232 µM); in [2] (Table 5, host cell not given), over 100 µg/mL. Further, the “SI (CC50/EC50)” value in data set [6] was under 3.2; in data set [3] it was over 10.1; in [4], over 25. The figures for the EC50 in data set [6] (setting [13]), in data set [3] (setting [14]) and in data set [4] (setting [15]) were over 20 µg/mL, 9.9 µg/mL (≈ 35.7 µM) and 4 µg/mL (≈ 14.4 µM), respectively. Besides, the “activity against HCMV” value in data set [6] is “little activity against HCMV”. Moreover, in data set [3], the “activity against HSV-2” value was “active against HSV-1 and HSV-2”. Moreover, the “activity against HSV-1” value in data set [4] is “active against HSV-1 and HSV-2”.

For the compound `Cc1cn([C@@]23C[C@H](O)[C@@H](CO)[C@@H]2C3)c(=O)[nH]c1=O` [Compound 25, (S)-methanocarba-T, reference compound], the CC50 in data set [1] (setting [9]) and in data set [2] (stationary cells) was over 100 µg/mL throughout. The antiherpetic activity entry with herpes viruses is “did not exhibit antiherpetic activity”. Further, the “SI (CC50/EC50)” value in [3] and in data set [4] was 1 in each case.

As for `Nc1nc(O)c2ncn(COC(CO)CO)c2n1` [GCV, gancyclovir], in data set [1] (setting [9]), the CC50 was 40 µg/mL (≈ 157 µM). The “cytotoxicity to rapidly dividing cells” value in the data set with Growing HFF was “increased cytotoxicity towards rapidly dividing cells”. Moreover, the EC50 was 0.2 µg/mL (≈ 0.784 µM) in data set [5] (control, read-out: Control EC50) and 0.3 µg/mL (≈ 1.18 µM) in [6] (Human betaherpesvirus 5, Table 3, HFF, positive control, read-out: Positive Control EC50).

A word on the EC50: it is the concentration at which the effect is half-maximal.

These data come from patent US5840728A, “Conformationally locked nucleoside analogs as antiherpetic agents” (priority 1997, dated 1998).
